Patent publication US20150099703A1, “TREATMENT OF POSTPARTUM HAEMORRHAGE WITH CHEMICALLY MODIFIED HEPARIN OR HEPARAN SULPHATE AND A UTEROTONIC AGENT” (DILAFOR AB, priority 2012, published 2015)
Positions of bridges follow the written chain, without caps; N, C: chain ends. Non-standard residues stand in square brackets, D forms with d. Residues, ends and D or L forms follow the SMILES beside them. Orn = NCCC[C@H](N)C(=O)O; Mpa = O=C(O)CCS

Experiments:
[1] = tested on: Human uterine smooth muscle cells; test: Intracellular Ca2+ measurement (Fluo-4, confocal live cell imaging) in uterine smooth muscle cells; assay type: cell-based
Experimental: Human uterine smooth muscle cells were established in a culture. Intracellular Ca^2+ was measured with the calcium indicator dye Fluo-4 and live cell imaging with confocal microscopy was established for the cells.

[2] = heparin, comparison; cited from earlier work

CC[C@H](C)[C@@H]1NC(=O)[C@H](Cc2ccc(O)cc2)NC(=O)[C@@H](N)CSSC[C@@H](C(=O)N2CCC[C@H]2C(=O)N[C@@H](CC(C)C)C(=O)NCC(N)=O)NC(=O)[C@H](CC(N)=O)NC(=O)[C@H](CCC(N)=O)NC1=O [oxytocin]
Ca2+-influx to the cytosol ([1]; cells treated with oxytocin alone): Ca^2+-influx to the cytosol was demonstrated | concentration giving maximum effect on Ca2+-influx ([1]; oxytocin alone, dose-dependent effect): 0.05 IU/ml

NCCOB(c1ccccc1)c1ccccc1 [2-APB, 2-Aminoethoxydiphenyl borate]
effect on oxytocin stimulated Ca2+-transport ([1]; 100 μM, 30 min of incubation): decreased strongly | effect on oxytocin/DF01 stimulated Ca2+-transport ([1]; 100 μM, 30 min of incubation): decreased strongly

heparin
corresponding (subcutaneous) bioavailability [2]: about 10%

CCOc1ccc(C[C@H]2NC(=O)CCSSC[C@@H](C(=O)N3CCC[C@H]3C(=O)N[C@@H](CCCN)C(=O)NCC(N)=O)NC(=O)[C@H](CC(N)=O)NC(=O)[C@H]([C@@H](C)O)NC(=O)[C@H]([C@@H](C)CC)NC2=O)cc1 [Atosiban] ([Mpa][dY](Et)ITNCP[Orn]G-NH2; disulfide 1-6)
effect on the combination oxytocin/DF01 effect on Ca2+ transport ([1]; concentration of 10^−6 M): clearly inhibited | effect on the oxytocin effect on Ca2+ transport ([1]; concentration of 10^−6 M): clearly inhibited
